# Assay results taken from publication PMC6001238, “Iterative Chemical Engineering of Vancomycin Leads to Novel Vancomycin Analogs With a High in Vitro Therapeutic Index” (Frontiers in Microbiology, 2018).
# Tests used:
# [1] = tested on: Murine leukemia (L1210) cells; assay: Cytostatic activity, L1210 cell proliferation; assay type: cell-based; conditions: mean ± SD of three experiments; highest concentration tested 250 µM; 2 days; read-out: Toxicity (IC50) L1210
# How it was run: (§1)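 Readout: Coulter cell number after drug exposure at 37°C. Durations differ by line (L1210 2 days; CEM 3 days; HeLa 4 days). Stock suspension 300,000–500,000 cells/mL, diluted by mixing with compound. Endpoint: IC50 vs negative control.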
# [2] = tested on: human cervix carcinoma (HeLa) cells; assay: Cytostatic activity, HeLa cell proliferation; assay type: cell-based; conditions: mean ± SD of three experiments; highest concentration tested 250 µM; 4 days; read-out: Toxicity (IC50) HeLa
# How it was run: as §1
# MRSA KS89 = assay: MIC, broth microdilution, MRSA KS89; assay type: cell-based, Staphylococcus aureus; conditions: for MIC-fold improvement vs. vancomycin: MRSA KS8, ratio of MIC of vancomycin and MIC of analogue; for MIC: Staphylococcus aureus MRSA KS8, read-out: MIC
# How it was run: (§2)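 Susceptibility was scored by broth microdilution (CLSI). In one instance each vancomycin analog or control antibiotic was tested in the presence of vancomycin, 10 μM final, and ultrapure water plus non-inoculated broth were included as controls.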
# E. faecalis VRE 29 = assay: MIC, broth microdilution, vancomycin-resistant E. faecalis VRE 29 (VanA); assay type: cell-based, Enterococcus faecalis; conditions: for MIC: Enterococcus faecalis VRE 29 (vancomycin-resistant), read-out: MIC; for MIC-fold improvement vs. vancomycin: VRE 29, ratio of MIC of vancomycin and MIC of analogue
# How it was run: as §2
# E. faecalis VSE 1 = assay: MIC, broth microdilution, vancomycin-sensitive E. faecalis (VSE 1); assay type: cell-based, Enterococcus faecalis; conditions: for MIC: Enterococcus faecalis VSE 1 (vancomycin-sensitive), read-out: MIC; for MIC-fold improvement vs. vancomycin: VSE 1, ratio of MIC of vancomycin and MIC of analogue
# How it was run: as §2
# [3] = tested on: L1210, CEM and HeLa cell lines; assay: Cytostatic activity, average or summary over L1210, CEM and HeLa; assay type: cell-based; conditions: average of L1210, CEM and HeLa; read-out: Toxicity (IC50) Average
# How it was run: as §1
# E. faecalis VRE 6 = assay: MIC, broth microdilution, vancomycin-resistant E. faecalis VRE 6 (VanA); assay type: cell-based, Enterococcus faecalis; conditions: for MIC: Enterococcus faecalis VRE 6 (vancomycin-resistant), read-out: MIC; for MIC-fold improvement vs. vancomycin: VRE 6, ratio of MIC of vancomycin and MIC of analogue
# How it was run: as §2
# S. aureus VISA/HIP5827 = assay: MIC, broth microdilution, vancomycin-intermediate S. aureus VISA HIP5827; assay type: cell-based, Staphylococcus aureus; conditions: for MIC: Staphylococcus aureus VISA/HIP5827, read-out: MIC; for MIC-fold improvement vs. vancomycin: VISA/HIP5827, ratio of MIC of vancomycin and MIC of analogue
# How it was run: as §2
# MRSA KS6 = assay: MIC, broth microdilution, MRSA KS6; assay type: cell-based, Staphylococcus aureus; conditions: for MIC-fold improvement vs. vancomycin: MRSA KS6, ratio of MIC of vancomycin and MIC of analogue; for MIC: Staphylococcus aureus MRSA KS6, read-out: MIC
# How it was run: as §2
# E. faecalis VRE 37 = assay: MIC, broth microdilution, vancomycin-resistant E. faecalis VRE 37 (VanA); assay type: cell-based, Enterococcus faecalis; conditions: for MIC: Enterococcus faecalis VRE 37 (vancomycin-resistant), read-out: MIC; for MIC-fold improvement vs. vancomycin: VRE 37, ratio of MIC of vancomycin and MIC of analogue
# How it was run: as §2
# MRSA KS2 = assay: MIC, broth microdilution, MRSA KS2; assay type: cell-based, Staphylococcus aureus; conditions: for MIC-fold improvement vs. vancomycin: MRSA KS2, ratio of MIC of vancomycin and MIC of analogue; for MIC: Staphylococcus aureus MRSA KS2, read-out: MIC
# How it was run: as §2
# MRSA KS1 = assay: MIC, broth microdilution, MRSA KS1; assay type: cell-based, Staphylococcus aureus; conditions: for MIC-fold improvement vs. vancomycin: MRSA KS1, ratio of MIC of vancomycin and MIC of analogue; for MIC: Staphylococcus aureus MRSA KS1, read-out: MIC
# How it was run: as §2
# S. aureus VRSA = assay: MIC, broth microdilution, vancomycin-resistant S. aureus (VRSA); assay type: cell-based, Staphylococcus aureus; conditions: for MIC: Staphylococcus aureus VRSA, read-out: MIC; for MIC-fold improvement vs. vancomycin: VRSA, ratio of MIC of vancomycin and MIC of analogue
# How it was run: as §2
# [4] = tested on: S. aureus VSSA (ATCC 6538); assay: MIC, broth microdilution, vancomycin-sensitive S. aureus (VSSA/MSSA, ATCC 6538); assay type: cell-based, Staphylococcus aureus; conditions: for MIC: Staphylococcus aureus VSSA, read-out: MIC; for MIC-fold improvement vs. vancomycin: VSSA, ratio of MIC of vancomycin and MIC of analogue
# How it was run: as §2
# [5] = tested on: human T-lymphocyte (CEM) cells; assay: Cytostatic activity, CEM cell proliferation; assay type: cell-based; conditions: mean ± SD of three experiments; highest concentration tested 250 µM; 3 days; read-out: Toxicity (IC50) CEM
# How it was run: as §1
# E. faecalis VRE 53 = assay: MIC, broth microdilution, vancomycin-resistant E. faecalis VRE 53 (VanA); assay type: cell-based, Enterococcus faecalis; conditions: for MIC: Enterococcus faecalis VRE 53 (vancomycin-resistant), read-out: MIC; for MIC-fold improvement vs. vancomycin: VRE 53, ratio of MIC of vancomycin and MIC of analogue
# How it was run: as §2
MIC-fold improvement vs. vancomycin (MRSA KS89),MIC (MRSA KS89) [µM],MIC (E. faecalis VRE 29) [µM],MIC-fold improvement vs. vancomycin (E. faecalis VRE 29),MIC (E. faecalis VSE 1) [µM],MIC-fold improvement vs. vancomycin (E. faecalis VSE 1),MIC (E. faecalis VRE 6) [µM],MIC-fold improvement vs. vancomycin (E. faecalis VRE 6),MIC (S. aureus VISA/HIP5827) [µM],MIC-fold improvement vs. vancomycin (S. aureus VISA/HIP5827),MIC-fold improvement vs. vancomycin (MRSA KS6),MIC (MRSA KS6) [µM],MIC (E. faecalis VRE 37) [µM],MIC-fold improvement vs. vancomycin (MRSA KS2),MIC (MRSA KS2) [µM],MIC-fold improvement vs. vancomycin (MRSA KS1),MIC (MRSA KS1) [µM],SMILES,IC50 [1] [µM],IC50 [2] [µM],IC50 [3] [µM],further results
2,0.39,12.5,32,0.39,4,6.25,32,1.56,4,2,0.39,12.5,2,0.39,2,0.39,CN[C@H](CC(C)C)C(=O)N[C@H]1C(=O)N[C@@H](CC(N)=O)C(=O)N[C@H]2C(=O)N[C@H]3C(=O)N[C@H](C(=O)N[C@H](C(=O)NCC(=O)Nc4cccc5ccccc45)c4cc(O)cc(O)c4-c4cc3ccc4O)[C@H](O)c3ccc(c(Cl)c3)Oc3cc2cc(c3O[C@@H]2O[C@H](CO)[C@@H](O)[C@H](O)[C@H]2O[C@H]2C[C@](C)(N)[C@H](O)[C@H](C)O2)Oc2ccc(cc2Cl)[C@H]1O [Vanc-41],> 250,> 250,> 250,MIC (S. aureus VRSA): 6.25 µM; MIC-fold improvement vs. vancomycin (S. aureus VRSA): 16; MIC [4]: 0.78 µM; MIC-fold improvement vs. vancomycin [4]: 1; IC50 [5]: > 250 µM; MIC (E. faecalis VRE 53): 25 µM; MIC-fold improvement vs. vancomycin (E. faecalis VRE 53): 16
1,0.78,25,16,0.78,2,12.5,16,1.56,4,1,0.78,25,2,0.39,1,0.78,CN[C@H](CC(C)C)C(=O)N[C@H]1C(=O)N[C@@H](CC(N)=O)C(=O)N[C@H]2C(=O)N[C@H]3C(=O)N[C@H](C(=O)N[C@H](C(=O)NCC(=O)Nc4ccc([N+](=O)[O-])cc4)c4cc(O)cc(O)c4-c4cc3ccc4O)[C@H](O)c3ccc(c(Cl)c3)Oc3cc2cc(c3O[C@@H]2O[C@H](CO)[C@@H](O)[C@H](O)[C@H]2O[C@H]2C[C@](C)(N)[C@H](O)[C@H](C)O2)Oc2ccc(cc2Cl)[C@H]1O [Vanc-67],≥ 250,52 ± 19,156,MIC-fold improvement vs. vancomycin (E. faecalis VRE 37): 16; MIC (S. aureus VRSA): 6.25 µM; MIC-fold improvement vs. vancomycin (S. aureus VRSA): 16; MIC [4]: 0.78 µM; MIC-fold improvement vs. vancomycin [4]: 1; IC50 [5]: 165 ± 32 µM; MIC (E. faecalis VRE 53): 25 µM; MIC-fold improvement vs. vancomycin (E. faecalis VRE 53): 16
2,0.39,12.5,32,0.39,4,3.13,64,0.39,16,2,0.39,25,2,0.39,2,0.39,CNC(CC(C)C)C(=O)NC1C(=O)NC(CC(N)=O)C(=O)NC2C(=O)NC3C(=O)NC(C(=O)NC(C(=O)NCCCNC(=O)c4ccc5cc(O)ccc5c4)c4cc(O)cc(O)c4-c4cc3ccc4O)C(O)c3ccc(c(Cl)c3)Oc3cc2cc(c3OC2OC(CO)C(O)C(O)C2OC2CC(C)(N)C(O)C(C)O2)Oc2ccc(cc2Cl)C1O (centres unmarked) [Vanc-30],> 250,45 ± 25,182,MIC-fold improvement vs. vancomycin (E. faecalis VRE 37): 16; MIC (S. aureus VRSA): 3.13 µM; MIC-fold improvement vs. vancomycin (S. aureus VRSA): 32; MIC [4]: 0.39 µM; MIC-fold improvement vs. vancomycin [4]: 2; IC50 [5]: > 250 µM; MIC (E. faecalis VRE 53): 25 µM; MIC-fold improvement vs. vancomycin (E. faecalis VRE 53): 16
